Assay results as given in PubChem BioAssay AID330 (DTP/NCI, 2004).
Several values for one entry are separate records, joined by “and”; a condition that tells them apart may be missing. Equal values may be shown once. Toxic doses and inconclusive results are not listed. Rule for the calls: active = survival T/C of 150% or more; inactive = T/C below 125% in these data.

Test system: P388 leukemia ip, CD2F1 mice, survival T/C
Assay: NCI In Vivo Anticancer Drug Screen. Data for tumor model P388 Leukemia (intraperitoneal) in CD2F1 (CDF1) mice
Details: endpoint: median survival time, higher = longer survival
In short: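 Mice carrying the transplanted tumor received test compound or vehicle. Survival was recorded in each group, and the value is the treated-group measurement divided by that of the vehicle-treated control group.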

[1] = dose: 25.0 mg/kg/injection, schedule: Q01DX009 (ip), vehicle: saline with Tween-80
[2] = dose: 50.0 mg/kg/injection, schedule: Q01DX009 (ip), vehicle: saline with Tween-80
[3] = dose: 100.0 mg/kg/injection, schedule: Q04DX003 (ip), vehicle: saline with Tween-80
[4] = dose: 60.0 mg/kg/injection, schedule: Q01DX005 (ip), vehicle: saline with Tween-80
[5] = dose: 120.0 mg/kg/injection, schedule: Q01DX005 (ip), vehicle: saline with Tween-80
[6] = dose: 240.0 mg/kg/injection, schedule: Q01DX005 (ip), vehicle: saline with Tween-80

Measured: T/C

NNC(=S)N/N=C/c1ccccn1
active: dose: 12.5 mg/kg/injection, schedule: Q01DX009 (ip), vehicle: saline 150 % of control | [1] 150 % of control | dose: 25.0 mg/kg/injection, schedule: Q01DX009 (ip), vehicle: saline 154 % of control and 170 % of control
inactive: dose: 0.78 mg/kg/injection, schedule: Q01DX009 (ip), vehicle: saline 99 % of control | dose: 1.56 mg/kg/injection, schedule: Q01DX009 (ip), vehicle: saline 102 % of control and 117 % of control | dose: 1.56 mg/kg/injection, schedule: Q01DX009 (ip), vehicle: suspension in saline 107 % of control | dose: 3.12 mg/kg/injection, schedule: Q01DX009 (ip), vehicle: suspension in saline 109 % of control | dose: 6.25 mg/kg/injection, schedule: Q01DX009 (ip), vehicle: saline with Tween-80 100 % of control | dose: 6.25 mg/kg/injection, schedule: Q01DX009 (ip), vehicle: saline 110 % of control | dose: 6.25 mg/kg/injection, schedule: Q01DX009 (ip), vehicle: suspension in saline 111 % of control | dose: 16.5 mg/kg/injection, schedule: Q01DX009 (ip), vehicle: saline sonified 122 % of control

Cc1cccc(Nc2c(N)nc(N)nc2N)c1
inactive: [1] 100 % of control | dose: 25.0 mg/kg/injection, schedule: Q04DX003 (ip), vehicle: saline with Tween-80 100 % of control | [2] 109 % of control | dose: 50.0 mg/kg/injection, schedule: Q04DX003 (ip), vehicle: saline with Tween-80 100 % of control | [3] 104 % of control and 118 % of control

CCCCN(CCCC)C(=O)C(O)C(=O)N(CCCC)CCCC
inactive: dose: 25.0 mg/kg/injection, schedule: Q01DX005 (ip), vehicle: Klucel (hydroxypropylcellulose) (HPC) 104 % of control | dose: 50.0 mg/kg/injection, schedule: Q01DX005 (ip), vehicle: Klucel (hydroxypropylcellulose) (HPC) 104 % of control | dose: 100.0 mg/kg/injection, schedule: Q01DX005 (ip), vehicle: Klucel (hydroxypropylcellulose) (HPC) 98 % of control | dose: 200.0 mg/kg/injection, schedule: Q01DX005 (ip), vehicle: Klucel (hydroxypropylcellulose) (HPC) 109 % of control

O=[N+]([O-])c1ccccc1N/N=C\c1cccc2c(/C=N/Nc3ccccc3[N+](=O)[O-])c(Cl)n(-c3ccccc3)c12
inactive: dose: 200.0 mg/kg/injection, schedule: Q01DX001 (ip), vehicle: Klucel (hydroxypropylcellulose) (HPC) 88 % of control

Cn1nc2c(c(Cl)c1=O)Nc1ccccc1O2
inactive: [4] 108 % of control | [5] 104 % of control | [6] 96 % of control

O=[N+]([O-])c1ccc(Sc2cccc[n+]2[O-])c2nonc12
inactive: dose: 1.87 mg/kg/injection, schedule: Q01DX009 (ip), vehicle: Klucel (hydroxypropylcellulose) (HPC) 107 % of control | dose: 3.75 mg/kg/injection, schedule: Q01DX009 (ip), vehicle: Klucel (hydroxypropylcellulose) (HPC) 99 % of control | dose: 7.5 mg/kg/injection, schedule: Q01DX009 (ip), vehicle: Klucel (hydroxypropylcellulose) (HPC) 101 % of control

COc1ccc(C(=O)C2Cc3c(ccc4ccccc34)OC2=O)cc1 (stereo not drawn)
inactive: [2] 95 % of control | dose: 100.0 mg/kg/injection, schedule: Q01DX009 (ip), vehicle: saline with Tween-80 91 % of control | dose: 200.0 mg/kg/injection, schedule: Q01DX009 (ip), vehicle: saline with Tween-80 88 % of control

COc1nc(N(CCO)c2ccccc2)nc(N(CCO)c2ccccc2)n1
inactive: dose: 50.0 mg/kg/injection, schedule: Q01DX005 (ip), vehicle: saline with Tween-80 96 % of control | dose: 100.0 mg/kg/injection, schedule: Q01DX005 (ip), vehicle: saline with Tween-80 93 % of control | dose: 200.0 mg/kg/injection, schedule: Q01DX005 (ip), vehicle: saline with Tween-80 92 % of control

O=P(C(=S)NC1CC2C=CC1C2)(c1ccccc1)c1ccccc1 (stereo not drawn)
inactive: dose: 25.0 mg/kg/injection, schedule: Q01DX009 (ip), vehicle: Klucel (hydroxypropylcellulose) (HPC) 95 % of control | dose: 50.0 mg/kg/injection, schedule: Q01DX009 (ip), vehicle: Klucel (hydroxypropylcellulose) (HPC) 100 % of control and 88 % of control | dose: 100.0 mg/kg/injection, schedule: Q01DX009 (ip), vehicle: Klucel (hydroxypropylcellulose) (HPC) 91 % of control | dose: 200.0 mg/kg/injection, schedule: Q01DX009 (ip), vehicle: Klucel (hydroxypropylcellulose) (HPC) 90 % of control

CCc1nnc2ccncn12
inactive: [3] 97 % of control | dose: 200.0 mg/kg/injection, schedule: Q04DX003 (ip), vehicle: saline with Tween-80 90 % of control | dose: 400.0 mg/kg/injection, schedule: Q04DX003 (ip), vehicle: saline with Tween-80 102 % of control

N#CNC1=C(C#N)C(c2ccccc2)CC(=O)N1 (stereo not drawn)
inactive: [4] 97 % of control | [5] 101 % of control | [6] 100 % of control
